Laboratory results reported in patent US11485762B2, “Compositions and methods for inhibition of L-plastin activity in osteoclasts to reduce bone loss” (University of Maryland, Baltimore, priority 2017, dated 2022).
Positions count from the first letter of the chain named.

B1: FL-LPL: HA-TAT fused full-length L-plastin protein (70-75 kDa), purified from bacterial expression vector pTAT-HA (protein, UniProt P13796 1-627, looked up)
chain: MARGSVSDEEMMELREAFAKVDTDGNGYISFNELNDLFKAACLPLPGYRVREITENLMATGDLDQDGRISFDEFIKIFHGLKSTDVAKTFRKAINKKEGICAIGGTSEQSSVGTQHSYSEEEKYAFVNWINKALENDPDCRHVIPMNPNTNDLFNAVGDGIVLCKMINLSVPDTIDERTINKKKLTPFTIQENLNLALNSASAIGCHVVNIGAEDLKEGKPYLVLGLLWQVIKIGLFADIELSRNEALIALLREGESLEDLMKLSPEELLLRWANYHLENAGCNKIGNFSTDIKDSKAYYHLLEQVAPKGDEEGVPAVVIDMSGLREKDDIQRAECMLQQAERLGCRQFVTATDVVRGNPKLNLAFIANLFNRYPALHKPENQDIDWGALEGETREERTFRNWMNSLGVNPRVNHLYSDLSDALVIFQLYEKIKVPVDWNRVNKPPYPKLGGNMKKLENCNYAVELGKNQAKFSLVGIGGQDLNEGNRTLTLALIWQLMRRYTLNILEEIGGGQKVNDDIIVNWVNETLREAKKSSSISSFKDPKISTSLPVLDLIDAIQPGSINYDLLKTENLNDDEKLNNAKYAISMARKIGARVYALPEDLVEVNPKMVMTVFACLMGKGMKRV
modifications: full-length HA-TAT tag
notes: HA-TAT fused full-length L-plastin protein (70-75 kDa), purified from bacterial expression vector pTAT-HA
B2: mutated FL-LPL: TAT-fused full-length L-plastin with Ser-5 and Ser-7 mutated to Ala-5 and Ala-7 (protein, UniProt P13796 1-627, looked up, variant S5A S7A)
chain: B1 chain with S5A, S7A
modifications: full-length HA-TAT tag

Columns and labels:
Type in all cases: cell-based, mouse
osteoclasts [1] = assay: Resorption pit formation assay on dentine slices; conditions: for resorption of dentine matrix: sNT-LPL peptides, 12-16 hours
Protocol: Osteoclasts transduced with TAT-LPL peptides of interest for 30 minutes, were re-plated on dentine slices for 10-12 hours in the presence of TAT-fused peptides of interest and TNF-α. Some cultures were treated with a neutralizing antibody to TNFR-1. Resorption assay was performed as described previously (Chellaiah et al., 2000, J. Cell Biol., 148: 665-678; Chellaiah at al., 2000, J. Biol. Chem., 275: 11993-12002). Resorbed area were also scanned in confocal microscopy. Images were stored in TIF format and processed by Adobe Photoshop (Adobe Systems Inc.) (Chellaiah et al., 2000, J. Cell Biol, 148: 665-678). The resorbed pit areas were quantified and data were compiled from four slices per treatment and per experiment. The resorbed pit areas (20-25 pits/slice) were quantified and data were compiled from four slices per treatment. […] The area of the pit was determined from the free-hand traced perimeter using the LSM software (Chellaiah et al., 2000, J. Cell Biol., 148: 665-678). As per Cosmo Bio recommendations, the results of one experiment was compiled for the presentation.
Resorption was evaluated using dentine slices as described previously (Chellaiah et al., 2000, J. Biol. Chem., 275: 11993-12002). After transduction for 30 minutes, osteoclasts were re-plated on dentine slices for 12-16 hours to detect resorption lacuna in the presence of respective LPL peptide and TNF-α. Each treatment was done in quadruplicates Subsequently, dentine slices were stained with Mayer's acid hematoxylin (Sigma) for 6 minutes followed by washing several times with water. Excess stain in the resorbed area and stained cell debris were removed with a cotton swab. The pits were imaged under an X40 objective in a Zeiss inverted phase contrast microscope fitted with a CCD camera (Chellaiah et al., 2003, J Biol Chem 278: 29086-29097; Chellaiah et al., 2003, Mol Biol Cell, 14: 173-189). Images were stored in TIF format and processed by Adobe Photoshop (Adobe Systems Inc.).

osteoclasts [2] = assay: Osteoclast migration (transwell and phagokinesis assays)
Text: Transwell migration was done essentially as reported previously (Chellaiah et al., 2000, J. Cell Biol., 148: 665-678). Osteoclasts that migrated to the underside of the transwell membrane were stained with hematoxylin stain. Dried filters ware cut out and mounted with a permount solution (Thomas Scientific, Swedesboro, N.J.) on a glass slide. Cells were viewed under X40 objective in an inverted microscope. Six fields per transwell insert were counted using a Zeiss microscope as described previously (Chellaiah et al., 2000, J. Biol. Chem., 275: 11993-12002). Data are presented as the number of cells per migrated field (mean±SD) from one experiment.
Cell migration (phagokinesis and transwell migration) assays were done as described previously (Chellaiah et al., 2000, J. Cell Biol., 148: 665-678). Osteoclasts transduced with sNT-LPL peptides (P1, P2, P5, and P6) were used for these assays. Three to four transwells were used for each treatment. Migrated cells at the bottom of the wells were counted in 3-4 independent fields/transwell filter. Data are presented as migrated cells/field (mean±SD). The experiment was repeated with three osteoclast preparations. In phagokinesis assay, cell motility was assessed by measuring the areas free of gold particles. By using a grided reticule (Boyce Scientific. Inc.) in the eyepiece of a Nikon microscope, areas free of gold particles were measured using a 10× objective. Areas free of gold particles were represented as area moved in mm^2 (Chellaiah et al., 2000, J. Cell Biol., 148: 665-678),

osteoclasts [3] = assay: F-actin content by rhodamine phalloidin binding; conditions: for F-actin content: TAT-fused LPL peptides, dentine, TNF-α, versus basal level
Protocol: For the measurement of F-actin, osteoclasts transduced with TAT-LPL peptides of interest for 15 to 30 minutes were re-plated on dentine slices for 3 to 4 hours or 10-12 hours, respectively, in the presence of indicated TAT-fused peptides of interest and TNF-α. For each treatment four to six wells in 24 well, culture dishes were used. Cells were fixed and rhodamine phalloidin binding to F-actin was done as described (Chellaiah et al., 2000, J. Cell Biol., 148: 665-678; Chellaiah et al., 2000, J. Biol. Chem., 275: 11993-12002: Chellaiah et at, 2007, J. Biol. Chem., 282: 10104-10116),
Osteoclasts were transduced with LPL and control peptides. For each treatment four to six wells in 24 well culture dishes were used. Cells were fixed and rhodamine phalloidin binding to F-actin was done as described (Chellaiah et al., 1998, J. Biol. Chem., 273: 11908-11916; Chellaiah et al., 1996, Mol. Biol. Cell, 7: 743-753).

[4] = phagokinesis and transwell migration assays, sNT-LPL peptides
[5] = transwell migration, TAT-fused LPL peptides

F-actin level (osteoclasts [3]; sNT-LPL peptides, compared with P2, P5, and P6) | Molecule | resorption of dentine matrix (osteoclasts [1]) | migration (osteoclasts [2]; [4]) | resorption (resorption pits) (osteoclasts [1]; dentine 10-12 hours, TNF-α) | migration (osteoclasts [2]; [5]) | F-actin content (osteoclasts [3])
 | MARGAVADEE [Peptide P2, TAT-fused sNT-LPL peptide, Ser-5 and Ser-7 substituted to Alanine (A5A7)] | no inhibitory effect | Neither the migration (FIG. 12A-FIG. 12C) nor the formation the podosomes (FIG. 12D) was affected |  |  | 
decrease was significant | MARGSVSDEE [Peptide P1, TAT-fused small molecular weight (10aa) amino-terminal LPL peptide, unsubstituted (S5S7)] | Reduced resorption of dentine | Neither the migration (FIG. 12A-FIG. 12C) nor the formation the podosomes (FIG. 12D) was affected |  |  | 
 | SRSGMVEEAD [Peptide P5, TAT-fused scrambled sNT-LPL peptide, control, reference compound] | no inhibitory effect | Neither the migration (FIG. 12A-FIG. 12C) nor the formation the podosomes (FIG. 12D) was affected |  |  | 
 | B1 |  |  | increase in the number and size (area) of resorption pits | does not affect | substantial increase above the basal level
 | B2 |  |  |  | does not affect | more or less equal
